{"source": "patent US10131652B2", "about": "“Pyrimidinyloxy benzene derivatives as herbicides” (E. I. DU PONT DE NEMOURS AND COMPANY, priority 2014, dated 2018)", "type_in_all_cases": "in vivo", "key": {"[1]": {"tested_on": "morningglory (Ipomoea coccinea)", "assay": "Test D pre-/postemergence plant response", "excerpt": "(§1) Seeds of plant species selected from blackgrass (Alopecurus myosuroides), Italian ryegrass (Lolium multiflorum), winter wheat (Triticum aestivum), galium (catchweed bedstraw, Galium aparine), corn (Zea mays), large (Lg) crabgrass (Digitaria sanguinalis), giant foxtail (Setaria faberii), johnsongrass (Sorghum halepense), lambsquarters (Chenopodium album), morningglory (Ipomoea coccinea), yellow nutsedge (Cyperus esculentus), pigweed (Amaranthus retroflexus), ragweed (common ragweed, Ambrosia elatior), soybean (Glycine max), bamyardgrass (Echinochloa crus-galli), oilseed rape (Brassica napus), waterhemp (common waterhemp, Amaranthus rudis), and velvetleaf (Abutilon theophrasti) were planted into a blend of loam soil and sand and treated preemergence with test chemicals formulated in a non-phytotoxic solvent mixture which included a surfactant. At the same time, plants selected from these crop and weed species and also kochia (Kochia scoparia), wild oat (Avena fatua), and chickweed (common chickweed, Stellaria media) were planted in pots containing Redi-Earth® planting medium (Scotts Company, 14111 Scottslawn Road, Marysville, Ohio 43041) comprising spaghnum peat moss, vermiculite, wetting agent and starter nutrients and treated with postemergence applications of test chemicals formulated in the same manner. Plants ranged in height from 2 to 18 cm (1- to 4-leaf stage) for postemergence treatments. Treated plants and controls were maintained in a greenhouse for 13 to 15 days, after which time all species were compared to controls and visually evaluated. Plant response ratings, summarized in Table D, are based on a scale of 0 to 100 where 0 is no effect and 100 is complete control. A dash (-) response means no test result."}, "[2]": {"tested_on": "johnsongrass (Sorghum halepense)", "assay": "Test D pre-/postemergence plant response", "excerpt": "as §1"}, "soybean (Glycine max)": {"tested_on": "soybean (Glycine max)", "assay": "Test D pre-/postemergence plant response", "excerpt": "as §1"}, "[3]": {"tested_on": "winter wheat (Triticum aestivum)", "assay": "Test D pre-/postemergence plant response", "excerpt": "as §1"}, "[4]": {"tested_on": "lambsquarters (Chenopodium album)", "assay": "Test D pre-/postemergence plant response", "excerpt": "as §1"}, "[5]": {"tested_on": "velvetleaf (Abutilon theophrasti)", "assay": "Test D pre-/postemergence plant response", "excerpt": "as §1"}, "[6]": {"tested_on": "waterhemp (common waterhemp, Amaranthus rudis)", "assay": "Test D pre-/postemergence plant response", "excerpt": "as §1"}, "[7]": {"tested_on": "wheat (Triticum aestivum)", "assay": "Test B pre-/postemergence plant response", "how_it_was_run": "(§2)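 Greenhouse pots, loam/sand soil; compound formulated with surfactant in non-phytotoxic solvent. Preemergence soil spray and postemergence spray at 1–2 leaf stage run simultaneously. Visual injury, 0–100, about 10 days post-treatment.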"}, "corn (Zea mays)": {"tested_on": "corn (Zea mays)", "assay": "Test B pre-/postemergence plant response", "how_it_was_run": "as §2"}, "[8]": {"tested_on": "giant foxtail (Setaria faberii)", "assay": "Test B pre-/postemergence plant response", "how_it_was_run": "as §2"}, "[9]": {"tested_on": "barnyardgrass (Echinochloa crus-galli)", "assay": "Test B pre-/postemergence plant response", "how_it_was_run": "as §2"}, "[10]": {"tested_on": "pigweed (Amaranthus retroflexus)", "assay": "Test B pre-/postemergence plant response", "how_it_was_run": "as §2"}, "[11]": {"tested_on": "ducksalad (Heteranthera limosa)", "assay": "Test C flooded paddy test plant response", "conditions": "Flood, 250 g ai/ha; scale of 0 to 100 where 0 is no effect and 100 is complete control; 13 to 15 days", "how_it_was_run": "(§3)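 Visual injury ratings (0, no effect; 100, complete control) were assigned after 13 to 15 days in a greenhouse, comparing treated plants with controls. Compounds had been added straight into paddy water over 2-leaf-stage plants flooded to 3 cm.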"}, "[12]": {"tested_on": "small-flower umbrella sedge (Cyperus difformis)", "assay": "Test C flooded paddy test plant response", "conditions": "Flood, 250 g ai/ha; scale of 0 to 100 where 0 is no effect and 100 is complete control; 13 to 15 days", "how_it_was_run": "as §3"}, "rice (Oryza sativa)": {"tested_on": "rice (Oryza sativa)", "assay": "Test C flooded paddy test plant response", "conditions": "Flood, 250 g ai/ha; scale of 0 to 100 where 0 is no effect and 100 is complete control; 13 to 15 days", "how_it_was_run": "as §3"}, "[13]": {"tested_on": "barnyardgrass (Echinochloa crus-galli)", "assay": "Test C flooded paddy test plant response", "conditions": "Flood, 250 g ai/ha; scale of 0 to 100 where 0 is no effect and 100 is complete control; 13 to 15 days", "how_it_was_run": "as §3"}, "[14]": {"conditions": "Postemergence, 16 g ai/ha, scale 0 to 100 (0 no effect, 100 complete control)"}, "[15]": {"conditions": "Postemergence, 31 g ai/ha, scale 0 to 100 (0 no effect, 100 complete control)"}, "[16]": {"conditions": "Postemergence, 62 g ai/ha, scale 0 to 100, 0 no effect, 100 complete control"}, "[17]": {"conditions": "Postemergence, 125 g ai/ha, scale 0 to 100, 0 no effect, 100 complete control"}, "[18]": {"conditions": "Preemergence, 16 g ai/ha, scale 0 to 100 (0 no effect, 100 complete control)"}, "[19]": {"conditions": "Preemergence, 31 g ai/ha, scale 0 to 100 (0 no effect, 100 complete control)"}, "[20]": {"conditions": "Preemergence, 62 g ai/ha, scale 0 to 100 (0 no effect, 100 complete control)"}, "[21]": {"conditions": "125 g ai/ha, postemergence, 0 to 100 scale, 0 no effect, 100 complete control"}, "[22]": {"conditions": "Postemergence, 500 g ai/ha, 0 to 100 scale (0 no effect, 100 complete control)"}, "[23]": {"conditions": "Preemergence, 125 g ai/ha, 0 to 100 scale where 0 is no effect and 100 is complete control"}, "[24]": {"conditions": "Preemergence, 500 g ai/ha, 0 to 100 scale where 0 is no effect and 100 is complete control"}}, "data": [{"smiles": "FC(F)(F)c1cc(-c2ccccc2Oc2ncc(Cl)cn2)ncn1", "note": "[Compound 54]", "values": [{"measurement": "Morningglory plant response rating", "setting": "[1]; [14]", "result": 5}, {"measurement": "Morningglory plant response rating", "setting": "[1]; [15]", "result": 75}, {"measurement": "Plant response rating, Morningglory", "setting": "[1]; [16]", "result": 75}, {"measurement": "Plant response rating, Morningglory", "setting": "[1]; [17]", "result": 85}, {"measurement": "Plant response rating (scale 0 to 100), Morningglory", "setting": "[1]; Preemergence, 125 g ai/ha", "result": 15}, {"measurement": "Plant response rating, Morningglory", "setting": "[1]; [18]", "result": 0}, {"measurement": "Plant response rating, Morningglory", "setting": "[1]; [19]", "result": 0}, {"measurement": "Plant response rating, Morningglory", "setting": "[1]; [20]", "result": 5}, {"measurement": "Johnsongrass plant response rating", "setting": "[2]; [14]", "result": 0}, {"measurement": "Johnsongrass plant response rating", "setting": "[2]; [15]", "result": 0}, {"measurement": "Plant response rating, Johnsongrass", "setting": "[2]; [16]", "result": 5}, {"measurement": "Plant response rating, Johnsongrass", "setting": "[2]; [17]", "result": 5}, {"measurement": "Plant response rating (scale 0 to 100), Johnsongrass", "setting": "[2]; Preemergence, 125 g ai/ha", "result": 40}, {"measurement": "Plant response rating, Johnsongrass", "setting": "[2]; [18]", "result": 0}, {"measurement": "Plant response rating, Johnsongrass", "setting": "[2]; [19]", "result": 0}, {"measurement": "Plant response rating, Johnsongrass", "setting": "[2]; [20]", "result": 10}, {"measurement": "Soybean plant response rating", "setting": "soybean (Glycine max); [14]", "result": 15}, {"measurement": "Soybean plant response rating", "setting": "soybean (Glycine max); [15]", "result": 10}, {"measurement": "Plant response rating, Soybean", "setting": "soybean (Glycine max); [16]", "result": 50}, {"measurement": "Plant response rating, Soybean", "setting": "soybean (Glycine max); [17]", "result": 80}, {"measurement": "Plant response rating (scale 0 to 100), Soybean", "setting": "soybean (Glycine max); Preemergence, 125 g ai/ha", "result": 20}, {"measurement": "Plant response rating, Soybean", "setting": "soybean (Glycine max); [18]", "result": 0}, {"measurement": "Plant response rating, Soybean", "setting": "soybean (Glycine max); [19]", "result": 10}, {"measurement": "Plant response rating, Soybean", "setting": "soybean (Glycine max); [20]", "result": 20}, {"measurement": "Wheat plant response rating", "setting": "[3]; [14]", "result": 0}, {"measurement": "Wheat plant response rating", "setting": "[3]; [15]", "result": 0}, {"measurement": "Plant response rating, Wheat", "setting": "[3]; [16]", "result": 0}, {"measurement": "Plant response rating, Wheat", "setting": "[3]; [17]", "result": 5}, {"measurement": "Plant response rating (scale 0 to 100), Wheat", "setting": "[3]; Preemergence, 125 g ai/ha", "result": 0}, {"measurement": "Plant response rating, Wheat", "setting": "[3]; [18]", "result": 0}, {"measurement": "Plant response rating, Wheat", "setting": "[3]; [19]", "result": 0}, {"measurement": "Plant response rating, Wheat", "setting": "[3]; [20]", "result": 0}, {"measurement": "Lambsquarters plant response rating", "setting": "[4]; [14]", "result": 0}, {"measurement": "Lambsquarters plant response rating", "setting": "[4]; [15]", "result": 5}, {"measurement": "Plant response rating, Lambsquarters", "setting": "[4]; [16]", "result": 5}, {"measurement": "Plant response rating, Lambsquarters", "setting": "[4]; [17]", "result": 70}, {"measurement": "Plant response rating (scale 0 to 100), Lambsquarters", "setting": "[4]; Preemergence, 125 g ai/ha", "result": 85}, {"measurement": "Plant response rating, Lambsquarters", "setting": "[4]; [18]", "result": 5}, {"measurement": "Plant response rating, Lambsquarters", "setting": "[4]; [19]", "result": 60}, {"measurement": "Plant response rating, Lambsquarters", "setting": "[4]; [20]", "result": 85}, {"measurement": "Velvetleaf plant response rating", "setting": "[5]; [14]", "result": 0}, {"measurement": "Velvetleaf plant response rating", "setting": "[5]; [15]", "result": 5}, {"measurement": "Plant response rating, Velvetleaf", "setting": "[5]; [16]", "result": 40}, {"measurement": "Plant response rating, Velvetleaf", "setting": "[5]; [17]", "result": 40}, {"measurement": "Plant response rating (scale 0 to 100), Velvetleaf", "setting": "[5]; Preemergence, 125 g ai/ha", "result": 100}, {"measurement": "Plant response rating, Velvetleaf", "setting": "[5]; [18]", "result": 15}, {"measurement": "Plant response rating, Velvetleaf", "setting": "[5]; [19]", "result": 70}, {"measurement": "Plant response rating, Velvetleaf", "setting": "[5]; [20]", "result": 85}, {"measurement": "Waterhemp plant response rating", "setting": "[6]; [14]", "result": 45}, {"measurement": "Waterhemp plant response rating", "setting": "[6]; [15]", "result": 60}, {"measurement": "Plant response rating, Waterhemp", "setting": "[6]; [16]", "result": 80}, {"measurement": "Plant response rating, Waterhemp", "setting": "[6]; [17]", "result": 75}, {"measurement": "Plant response rating (scale 0 to 100), Waterhemp", "setting": "[6]; Preemergence, 125 g ai/ha", "result": 100}, {"measurement": "Plant response rating, Waterhemp", "setting": "[6]; [18]", "result": 25}, {"measurement": "Plant response rating, Waterhemp", "setting": "[6]; [19]", "result": 85}, {"measurement": "Plant response rating, Waterhemp", "setting": "[6]; [20]", "result": 100}, {"measurement": "Plant response rating, Wheat", "setting": "[7]; [21]", "result": 0}, {"measurement": "Plant response rating, Wheat", "setting": "[7]; [22]", "result": 0}, {"measurement": "Plant response rating, Corn", "setting": "corn (Zea mays); [21]", "result": 0}, {"measurement": "Plant response rating, Corn", "setting": "corn (Zea mays); [22]", "result": 0}, {"measurement": "Plant response rating, Foxtail, Giant", "setting": "[8]; [21]", "result": 80}, {"measurement": "Plant response rating, Foxtail, Giant", "setting": "[8]; [22]", "result": 100}, {"measurement": "Plant response rating, Foxtail, Giant", "setting": "[8]; [23]", "result": 100}, {"measurement": "Plant response rating, Foxtail, Giant", "setting": "[8]; [24]", "result": 100}, {"measurement": "Plant response rating, Barnyardgrass", "setting": "[9]; [21]", "result": 20}, {"measurement": "Plant response rating, Barnyardgrass", "setting": "[9]; [22]", "result": 100}, {"measurement": "Plant response rating, Barnyardgrass", "setting": "[9]; [23]", "result": 60}, {"measurement": "Plant response rating, Barnyardgrass", "setting": "[9]; [24]", "result": 100}, {"measurement": "Plant response rating, Pigweed", "setting": "[10]; [21]", "result": 100}, {"measurement": "Plant response rating, Pigweed", "setting": "[10]; [22]", "result": 100}, {"measurement": "Plant response rating, Pigweed", "setting": "[10]; [23]", "result": 100}, {"measurement": "Plant response rating, Pigweed", "setting": "[10]; [24]", "result": 100}, {"measurement": "Ducksalad plant response rating", "setting": "[11]", "result": 60}, {"measurement": "Sedge, Umbrella plant response rating", "setting": "[12]", "result": 0}, {"measurement": "Rice plant response rating", "setting": "rice (Oryza sativa)", "result": 0}, {"measurement": "Barnyardgrass plant response rating", "setting": "[13]", "result": 0}]}]}
